Results from patent publication US8541373B2, “BChE albumin fusions for the treatment of cocaine abuse” (priority 2009, dated 2013).

Experiments:
[1] = Cardiovascular and respiratory safety pharmacology of AlbuBChE alone (telemetry); conditions: 15 mg/kg IM
Procedure: Prior to the start of the study, the monkeys were surgically instrumented with telemetry transmitters and vascular access ports. The following CV parameters were monitored: systolic pressure, diastolic pressure, mean arterial blood pressure, mean heart rate and mean rate-pressure product. Body temperatures changes were also monitored.
Study Group 1 (3 males and 3 females), served as a control group for testing the effect of AlbuBChE alone compared to its vehicle. Monkeys were administered (IM) with the control article AlbuBChE formulation buffer on Study Days (SDs) 1 and 4. Three hours post formulation buffer administration respiratory and cardiovascular (CV) parameters were recorded, respectively.
A single IM dose of the test article (AlbuBChE at 15 mg/kg) was administered on SD 8 and 11. Three hours after AlbuBChE dosing (corresponding to Tmax of AlbuBChE) CV and respiratory parameters were monitored, respectively.
The physiological responses to test article administration, including blood pressure, heart rate, body temperature, and the electrocardiograph (ECG), were monitored.

cocaine = test: Effect of AlbuBChE pretreatment on cocaine-induced cardiovascular and body temperature changes; assay type: in vivo, cynomolgus monkeys
Procedure: The effect of pretreatment with AlbuBChE prior to cocaine dose on CV parameters was tested on the second group (Group 2) of animals (3 males and 3 females). First baseline CV parameters were recorded on SD 15 after an IM administration of AlbuBChE formulation buffer followed by a single IV administration of saline (cocaine vehicle), 3 hours later. The effect of cocaine on CV parameters was measured on SD 18, on which the animals received a single IM injection of AlbuBChE formulation buffer followed by a single IV dose of cocaine (1 mg/kg, IV), 3 hours later.
The effect of pretreatment with AlbuBChE on cocaine-induced changes in CV parameters was monitored on SD 22. CV parameters were recorded subsequent to a single IM dose of AlbuBChE (15 mg/kg) followed by a single IV dose of cocaine (1 mg/kg), 3 hours later (see Table 21).

[2] = tested on: cocaine self-administration; test: Cocaine self-administration; assay type: in vivo, squirrel monkeys (Saimiri sciureus)
Text: Adult male squirrel monkeys (Saimiri sciureus) weighing 0.8 to 1.2 kg were used as subjects. All monkeys were individually housed in a humidity and temperature controlled room and had free access to water. The monkeys were fed following any experimental procedures an amount of food (Lab Diet 5045, PMI Nutrition International, Richmond, Ind.; Banana Softies, Bio-Serv, Frenchtown, N.J.) determined to maintain a stable weight. Fresh fruit, vegetables and environmental enrichment were also provided daily. The animal care facilities were fully accredited by AAALAC and all experiments were approved by the NIDA Intramural Research Program Animal Care and Use Committee.
Three monkeys were trained to self-administer 30 μg/kg/inj i.v. cocaine. Details of the self-administration training procedure can be found elsewhere (Justinova et al., 2003). In brief, the monkeys were placed in a seated position in a Plexiglas restraint chair. The chair was enclosed in a larger acoustical chamber. On the front wall of the restraint chair there was a response lever and stimulus lights. A green light signaled the beginning of the session. The monkeys were trained to make 10 responses (fixed-ratio, FR, 10) to receive an i.v. injection of cocaine. The injection of cocaine was accompanied by the green light, turning off and a yellow stimulus light being presented for 2 sec. Following each cocaine injection there was also a 60-sec timeout. At the end of the timeout, the green light was turned on. Sessions lasted for 1 hour. Occasionally, saline was substituted for cocaine. Following the establishment of stable cocaine self-administration and reliable extinction of responding following saline substitution, AlbuBChE (5 mg/kg, i.m.) or its vehicle (i.m.) were given 2 hours prior to a self-administration session. Self-administration responding was then measured for 5 consecutive days. Following each drug test or saline substitution, responding for 30 μg/kg/inj cocaine was reestablished for at least 5 days. Following reinstatement testing (see below), the dose of cocaine available for self-administration was lowered to 10 μg/kg/inj and the effect of AlbuBChE (5 mg/kg, i.m.) was again determined.
(§1) The blood level data were analyzed separately for each metabolite and time point (5 or 30 min). […] The self-administration data were analyzed separately for response rate or injections following either vehicle treatment or AlbuBChE treatment. Control data were included in the analysis by taking the average of the last 3 days for the immediately preceding baseline condition. A within subjects ANOVA was then performed with follow-up tests contrasting days following vehicle or AlbuBChE with the control. For the reinstatement tests, a two-way ANOVA was performed for both response rate and injections, with time post vehicle or AlbuBChE as the within-subjects factor and pretreatment (vehicle or AlbuBChE) as the between subjects factor. Follow-up contrast compared vehicle and AlbuBChE at each time point.

[3] = tested on: cocaine-induced reinstatement; test: Reinstatement of cocaine self-administration; assay type: in vivo, squirrel monkeys (Saimiri sciureus)
Procedure: as §1

[4] = tested on: cocaine discriminative-stimulus effects; test: Drug discrimination in methamphetamine-trained monkeys; assay type: in vivo, squirrel monkeys
[5] = rats; cited from earlier work
[6] = 15 mg/kg IM 3 hours before cocaine 1 mg/kg IV
[7] = 5 mg/kg i.m., 30 μg/kg/inj cocaine, tracked 5 days

AlbuBChE
Changes in recorded CV parameters and body temperature vs formulation buffer [1]: did not produce any significant changes | Survival ([1]; with or without cocaine): All animals survived | Maximum blood pressure after cocaine (cocaine; [6]): decreased | Truncation of time to reversal of blood pressure effect (cocaine; [6]): 4.5 fold | Time to reversal of cocaine-induced increase in mean arterial blood pressure (cocaine; 15 mg/kg IM 3 hours before cocaine 1 mg/kg IV (77 minutes with cocaine alone)): 17 min | Body temperature after cocaine (cocaine; 15 mg/kg IM pre-treatment, cocaine 1 mg/kg IV, base line 38° C. (38.7° C. with cocaine alone)): 38.3 °C | Cocaine-induced increase in heart rate (cocaine; 15 mg/kg pre-treatment, cocaine 1 mg/kg IV (70% with cocaine alone)): 30% | Time for heart rate to return to baseline after cocaine dose (cocaine; 15 mg/kg pre-treatment, cocaine 1 mg/kg IV (2 hours with cocaine alone)): 30 min | Peak heart rate after cocaine (cocaine; 15 mg/kg pre-treatment, cocaine 1 mg/kg IV, baseline 140 (240 with cocaine alone)): 182 beats/min | Duration of effect on cocaine self-administration ([2]; 30 μg/kg/inj cocaine, reduced effectiveness): ≥ 3 days | Cocaine self-administration ([2]; 5 mg/kg i.m., 30 μg/kg/inj cocaine): reduced self-administration | Self-administration injections vs baseline [2, 7]: significantly different from control on day 1 and 4 | Self-administration response rate vs baseline [2, 7]: different from control on days 1-4 | Self-administration response rate and injections ([2]; 5 mg/kg, 10 μg/kg/inj cocaine, 2 hrs following AlbuBChE): failed to reach significance | Reinstatement of responding (response rate and injections) ([3]; 5 mg/kg i.m., 0.3 mg/kg cocaine i.v., 2 hr time point): significantly blocked | Reinstatement of responding (responses and injections) ([3]; 5 mg/kg, 0.1 mg/kg cocaine as reinstatement dose): significant at 2 hrs | Generalization of cocaine to the methamphetamine cue ([4]; 5 mg/kg 2 hrs prior, 0.3 mg/kg cocaine): failed to generalize | Substitution of cocaine for methamphetamine ([4]; 5 mg/kg 2 hrs prior, 1.0 mg/kg cocaine): approximately 70% | Generalization of cocaine to the methamphetamine cue ([4]; 24 hrs following AlbuBChE, 0.3 mg/kg cocaine): approximately 70% | Generalization of cocaine to the methamphetamine cue ([4]; 24 hrs following AlbuBChE, 1.0 mg/kg cocaine): fully generalized | Generalization of cocaine to the methamphetamine cue ([4]; 48 hrs following AlbuBChE, 0.3 mg/kg cocaine): fully generalized | Generalization of methamphetamine to the methamphetamine cue ([4]; AlbuBChE 2 hrs prior to methamphetamine dose-effect function): did not affect generalization | Rate of responding in discrimination study ([4]; cocaine or methamphetamine treatment condition): did not affect the rate of responding | Side effects of intravenous administration [5]: modest increase in blood pressure and mild lethargy
